Experiment [1] concerns the target T1, ALK2 R206H (GST-tagged mutant ALK2) (Homo sapiens, UniProt Q04771, R206H).
T1 construct: purchased Carna Bioscience or ThermoFisher 09-148 or PV6232
T1 sequence (Q04771 21-509 R206H): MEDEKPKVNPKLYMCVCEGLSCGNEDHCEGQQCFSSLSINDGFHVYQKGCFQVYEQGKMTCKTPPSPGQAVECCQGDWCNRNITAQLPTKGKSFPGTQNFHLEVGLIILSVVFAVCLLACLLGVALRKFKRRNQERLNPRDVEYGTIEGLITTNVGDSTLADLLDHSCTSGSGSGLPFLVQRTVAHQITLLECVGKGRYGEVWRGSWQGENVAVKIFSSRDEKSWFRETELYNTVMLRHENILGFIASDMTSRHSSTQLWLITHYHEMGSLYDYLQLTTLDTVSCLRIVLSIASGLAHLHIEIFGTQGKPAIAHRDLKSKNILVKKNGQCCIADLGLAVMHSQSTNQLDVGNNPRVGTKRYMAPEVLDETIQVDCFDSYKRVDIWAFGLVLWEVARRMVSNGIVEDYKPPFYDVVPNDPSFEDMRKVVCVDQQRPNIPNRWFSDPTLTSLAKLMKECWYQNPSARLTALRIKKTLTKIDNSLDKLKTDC
In words: ALK binding assay (LANTHASCREEN TR-FRET competitive binding, displacement of Kinase Tracer 178). The note with it: ALK2 R206H, LANTHASCREEN TR-FRET competitive binding; read-out: Binding Assay (IC50).

For the next experiment, the target named is T2, human ALK2 R206H (Homo sapiens, UniProt Q04771, R206H).
T2 construct: expressed in transfected cells; host or cells: HEK293 (ATCC CRL1573), lentivirus transduction, blasticidin selection
T2 sequence (Q04771 21-509 R206H): T1 sequence (Q04771 21-509 R206H)
In words: Cell-based ALK2-R206H cell activity assay (Smad1-Ser463/Ser465 phosphorylation by AlphaLISA in HEK293-ALK2-R206H cells). The note with it: read-out: Cell Line (Cell Assay IC50). An outline of the steps:
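Stable HEK293 cells expressing C-terminally FLAG-tagged human ALK2 R206H (lentiviral, blasticidin-selected) were treated with compounds in 10-point, 3-fold dilutions from 10 μM or 1 μM top, in duplicate. Smad1 Ser463/Ser465 phosphorylation was read by AlphaLISA.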
On the technique in general: Alpha assays give light when donor and acceptor beads are brought close together.

The term IC50 denotes the concentration needed to halve the response being measured.

Take `O=C(C1CC1)N1CCN(c2ccnn3cc(-c4ccc(N5CCNCC5)nc4)cc23)CC1` [Compound 135]: the figures for the IC50 (in experiment [1]; at human ALK2 R206H) were 0.01 to 0.05 µM and 0.1 to 0.5 µM, respectively.
As to `CCN1CCCC(Oc2ccc(-c3cc4c(N5CCN(C(=O)C6CC6)CC5)ccnn4c3)cc2)C1` (stereo not drawn) [Compound 269], the IC50 in experiment [1] was under 0.01 µM; at human ALK2 R206H it was under 0.1 µM.
The matching figures for `CC(C)NC(=O)N1CCN(c2ccnn3cc(-c4ccc([C@@H]5CCCN5)cn4)cc23)CC1` [Compound 466]: under 0.01 µM and under 0.1 µM.
Turning to `CCN1CCN(c2ccc(-c3cc4c(N5CCN(C(=O)C6CC6)CC5)ccnn4c3)cc2)C[C@H]1C` [Compound 264], the IC50 in experiment [1] is under 0.01 µM; at human ALK2 R206H, 0.1 to 0.5 µM.
As for `CC[C@@H](C)N1CCC(c2ccc(-c3cc4c(N5CCN(C(=O)C6CC6)CC5)ccnn4c3)cc2)CC1` [Compound 563], the IC50 in experiment [1] is under 0.01 µM; at human ALK2 R206H, under 0.1 µM.
Regarding `CCN1CCN(c2ccc(-c3cc4c(N5CCN(C(=O)[C@@H]6C[C@H]6F)CC5)ccnn4c3)cc2)CC1` [Compound 292], the results for the IC50 (in experiment [1]; on human ALK2 R206H) were under 0.01 µM and under 0.1 µM, respectively.
The matching figures for `COC[C@H](C)N1CCC(OC)(c2ccc(-c3cc4c(N5CCN(C(=O)[C@H]6C[C@H](C#N)C6)CC5)ccnn4c3)nc2)CC1` [Compound 748]: under 0.01 µM and under 0.1 µM.
Regarding `CCN1CCN(c2ccc(-c3cc4c(N5CCN(C(=O)N6CC(C#N)C6)CC5)ccnn4c3)cc2)CC1` [Compound 376], the IC50 was under 0.01 µM in experiment [1] and under 0.1 µM on human ALK2 R206H.
In the case of `COC1(c2ccc(-c3cc4c(N5CCN(C(=O)OC6COC6)CC5)ccnn4c3)cc2)CCNCC1` [Compound 599], the IC50 in experiment [1] was under 0.01 µM; on human ALK2 R206H it was under 0.1 µM.
The matching figures for `COC1(c2ccc(-c3cc4c(N5CCN(C(=O)C6CC(C#N)C6)CC5)ccnn4c3)cc2)CN(C(C)C)C1` (stereo not drawn) [Compound 655]: under 0.01 µM and under 0.1 µM.
The matching figures for `O=C(OC1COC1)N1CCN(c2ccnn3cc(-c4ccc(C5CCNCC5)cc4)cc23)CC1` [Compound 773]: under 0.01 µM and 0.1 to 0.5 µM.
The matching figures for `CC(C)N1CCC[C@@H](c2ccc(-c3cc4c(N5CCN(C(=O)OC6COC6)CC5)ccnn4c3)cc2)C1` [Compound 631, (S)-oxetan-3-yl 4-(6-(4-(1-isopropylpiperidin-3-yl)phenyl)pyrrolo[1,2-b]pyridazin-4-yl)piperazine-1-carboxylate]: under 0.01 µM and under 0.1 µM.
As to `CO[C@@]1(c2ccc(-c3cc4c(N5CCN(C(=O)C6CC6)CC5)ccnn4c3)cc2)CCCNC1` [Compound 490], the IC50 is under 0.01 µM in experiment [1] and under 0.1 µM at human ALK2 R206H.
The matching figures for `N#C[C@H]1C[C@@H]1C(=O)N1CCN(c2ccnn3cc(-c4ccc([C@]5(F)CCCNC5)cc4)cc23)CC1` [Compound 511]: under 0.01 µM and under 0.1 µM.
The matching figures for `CCOC(=O)N1CCN(c2ccnn3cc(-c4ccc([C@]5(F)CCCN(C(C)C)C5)cn4)cc23)CC1` [Compound 613]: under 0.01 µM and under 0.1 µM.
For the molecule `CCNC(=O)N1CCN(c2ccnn3cc(-c4ccc([C@@H]5CCN(C(C)C)C5)cc4)cc23)CC1` [Compound 224], the IC50 is under 0.01 µM in experiment [1] and under 0.1 µM on human ALK2 R206H.
The matching figures for `CC(C)N1CCC[C@H](c2ccc(-c3cc4c(N5CCN(C(=O)OC6COC6)CC5)ccnn4c3)cc2F)C1` [Compound 693]: under 0.01 µM and under 0.1 µM.
`CC(C)N1CCC(COC(F)F)(c2ccc(-c3cc4c(N5CCN(C(=O)C6CC6)CC5)ccnn4c3)cc2)CC1` [Compound 859]: the IC50 in experiment [1] was under 0.01 µM; at human ALK2 R206H, under 0.1 µM.
The matching figures for `CC(C)N1CC[C@H](c2ccc(-c3cc4c(N5CCN(C(=O)C6CC6)[C@H](C)C5)ccnn4c3)cc2)C1` [Compound 253]: under 0.01 µM and 0.1 to 0.5 µM.
`COC1(c2ccc(-c3cc4c(N5CCN(C(=O)C6CC6)CC5)ccnn4c3)cc2)CCNCC1` [Compound 488]: the 50% inhibitory concentration (IC50) is under 0.01 µM in experiment [1] and under 0.1 µM at human ALK2 R206H.
The matching figures for `CC(C)NC(=O)N1CCN(c2ccnn3cc(-c4ccc([C@@]5(O)CCN(C(C)C)C5)cc4)cc23)CC1` [Compound 595]: under 0.01 µM and under 0.1 µM.
The matching figures for `CCOC(=O)N1CCN(c2ccnn3cc(-c4ccc([C@@]5(F)CCCN(C(C)C)C5)cc4)cc23)CC1` [Compound 611]: under 0.01 µM and under 0.1 µM.
`CC(C)N1CCC[C@@H](c2ccc(-c3cc4c(N5CCN(C(=O)O[C@@H]6CCOC6)CC5)ccnn4c3)cc2)C1` [Compound 825]: the IC50 in experiment [1] is under 0.01 µM; at human ALK2 R206H, 0.1 to 0.5 µM.
Regarding `CCNC(=O)N1CCN(c2ccnn3cc(-c4ccc([C@@]5(OC)CCCN(C(C)C)C5)cn4)cc23)CC1` [Compound 646], the IC50 in experiment [1] was under 0.01 µM; on human ALK2 R206H, under 0.1 µM.
The matching figures for `CC(C)N1CCN[C@H](c2ccc(-c3cc4c(N5CCN(C(=O)C6CC6)CC5)ccnn4c3)cc2)C1` [Compound 517]: under 0.01 µM and under 0.1 µM.
`CC(C)N1CCN(C)[C@](C)(c2ccc(-c3cc4c(N5CCN(C(=O)C6CC6)CC5)ccnn4c3)cc2)C1` [Compound 619]: the IC50 in experiment [1] was under 0.01 µM; at human ALK2 R206H, under 0.1 µM.
The matching figures for `O=C(C1CC1)N1CCN(c2ccnn3cc(-c4ccc(C5(F)CCNCC5)cc4)cc23)CC1` [Compound 474]: under 0.01 µM and 0.1 to 0.5 µM.
The matching figures for `N#C[C@H]1C[C@@H]1C(=O)N1CCN(c2ccnn3cc(-c4ccc(C5(F)CCCNC5)cc4)cc23)CC1` (stereo partly drawn) [Compound 258]: under 0.01 µM and under 0.1 µM.
The matching figures for `CCOC(=O)N1CCN(c2ccnn3cc(-c4ccc([C@]5(OC)CCCNC5)cc4)cc23)CC1` [Compound 777]: under 0.01 µM and under 0.1 µM.
On to `O=C(C1CC1)N1CCN(c2ccnn3cc(-c4ccc(CNC5COC5)cc4)cc23)CC1` [Compound 760], for which the results for the IC50 (in experiment [1]; on human ALK2 R206H) were under 0.01 µM and 0.1 to 0.5 µM, respectively.
Regarding `COC1(c2ccc(-c3cc4c(N5CCN(C(=O)NC(C)C)CC5)ccnn4c3)cc2)CCN(C(C)C)CC1` [Compound 829], the IC50 in experiment [1] was under 0.01 µM; on human ALK2 R206H, under 0.1 µM.
The matching figures for `Cc1cc([C@@H]2CCN(C(C)C)C2)ccc1-c1cc2c(N3CCN(C(=O)C4CC4)CC3)ccnn2c1` [Compound 255]: under 0.01 µM and 0.1 to 0.5 µM.
As for `CCOC1(c2ccc(-c3cc4c(N5CCN(C(=O)OC6CN(C(C)=O)C6)CC5)ccnn4c3)nc2)CCN(C(C)C)CC1` [Compound 895], the IC50 in experiment [1] is under 0.01 µM; on human ALK2 R206H it was 0.1 to 0.5 µM.
As to `CC(C)N1CCCC(O)(c2ccc(-c3cc4c(N5CCN(C(=O)C6CC6)CC5)ccnn4c3)cc2)C1` (stereo not drawn) [Compound 323], the IC50 is under 0.01 µM in experiment [1] and under 0.1 µM at human ALK2 R206H.
The matching figures for `CC(C)N1CCC[C@H](c2ccc(-c3cc4c(N5CCN(C(=O)C6CC6)CC5)ccnn4c3)cc2)C1` [Compound 247]: under 0.01 µM and under 0.1 µM.
With `CC(C)N1CC[C@H](OC(F)F)[C@@H](c2ccc(-c3cc4c(N5CCN(C(=O)OC6COC6)CC5)ccnn4c3)cc2)C1` [Compound 888], the IC50 in experiment [1] was under 0.01 µM; at human ALK2 R206H, under 0.1 µM.

The values above are taken from US10233186B2, “Inhibitors of activin receptor-like kinase” (BLUEPRINT MEDICINES CORPORATION, priority 2016, dated 2019).
